According to ChEMBL document CHEMBL1132524, “Synthesis and evaluation of analogs of Efavirenz (SUSTIVA) as HIV-1 reverse transcriptase inhibitors” (Bioorg Med Chem Lett, 1999):

What was measured:
[1] = test system: Human immunodeficiency virus 1
[2] = target: Human immunodeficiency virus type 1 reverse transcriptase (Human immunodeficiency virus 1, UniProt Q72547); assay: Inhibitory activity against HIV-1 reverse transcriptase enzyme

| Compound | IC90 [1] [nM] | IC50 [2] [nM] |
| --- | --- | --- |
| O=C1Nc2ccc(F)cc2C(C#CC2CC2)(C(F)(F)F)O1 (stereo not given) | 7.35 | 190 |
| O=C1Nc2ccccc2C(C#CC2CC2)(C(F)(F)F)O1 (stereo not given) | 10.3 | 478 |
| O=C1Nc2ccc(-c3ccccc3)cc2C(C#CC2CC2)(C(F)(F)F)O1 (stereo not given) | 249 | > 2000 |
| CC(C)c1ccc2c(c1)C(C#CC1CC1)(C(F)(F)F)OC(=O)N2 (stereo not given) | 27.8 | 1960 |
| O=C1Nc2c(Cl)cc(Cl)cc2C(C#CC2CC2)(C(F)(F)F)O1 (stereo not given) | 28.6 | > 2000 |
| O=C1Nc2c(cc(F)c(F)c2F)C(C#CC2CC2)(C(F)(F)F)O1 (stereo not given) | 418 | > 2000 |
| O=C1Nc2c(F)cc(F)c(F)c2C(C#CC2CC2)(C(F)(F)F)O1 (stereo not given) | 14 | 800 |
| Cc1ccc2c(c1)C(C#CC1CC1)(C(F)(F)F)OC(=O)N2 (stereo not given) | 7.11 | 133 |
| CN(C)c1ccc2c(c1)C(C#CC1CC1)(C(F)(F)F)OC(=O)N2 (stereo not given) | 8.33 | 816 |
| COc1ccc2c(c1)C(C#CC1CC1)(C(F)(F)F)OC(=O)N2 (stereo not given) | 2 | 131 |
| O=C1Nc2ccc(F)c(F)c2C(C#CC2CC2)(C(F)(F)F)O1 (stereo not given) | – | 84 |
| O=C1Nc2c(F)ccc(F)c2C(C#CC2CC2)(C(F)(F)F)O1 (stereo not given) | 18 | 796 |
| O=C1Nc2c(F)cc(Cl)cc2C(C#CC2CC2)(C(F)(F)F)O1 (stereo not given) | 7.19 | – |
| O=C1Nc2cc3ccccc3cc2C(C#CC2CC2)(C(F)(F)F)O1 (stereo not given) | 26.9 | 1910 |
| O=C1Nc2cc(F)c(F)c(F)c2C(C#CC2CC2)(C(F)(F)F)O1 (stereo not given) | 19.6 | 442 |
| O=C1Nc2ccc(OC(F)(F)F)cc2C(C#CC2CC2)(C(F)(F)F)O1 (stereo not given) | 18.9 | 1250 |
